Results reported in ChEMBL document CHEMBL1156829 (Proc Natl Acad Sci U S A, 2008).
pEC50: −log10 of the molar value.

How the values were obtained:
Plasmodium falciparum [1] = test: NOVARTIS: Inhibition of Plasmodium falciparum W2 (drug-resistant) proliferation in erythrocyte-based infection assay; type: functional, organism-based; settings: Plasmodium falciparum, W2; read-out: EC50
Plasmodium falciparum [2] = test: NOVARTIS: Inhibition of Plasmodium falciparum 3D7 (drug-susceptible) proliferation in erythrocyte-based infection assay; type: functional, organism-based; settings: Plasmodium falciparum, 3D7
[3] = NOVARTIS: Cytotoxicity against human hepatocellular carcinoma cell line (Huh7); type: toxicity, cell-based, Huh-7; settings: Huh7 cells (hepatocellular carcinoma cell line)

| SMILES | pEC50 (Plasmodium falciparum [1]) | pEC50 (Plasmodium falciparum [2]) | CC50 [3] [nM] |
| --- | --- | --- | --- |
| O=c1c2ccccc2nc(C=Cc2ccc([N+](=O)[O-])o2)n1-c1ccc(Br)cc1 | 5.72 | < 4.91 | > 100000 |
| CCCC1(CCC)NC(=S)N(c2ccc(C)c(C)c2)N1 | < 6.24 | < 5.90 | > 10000 |
| CN(C)c1ccc(/C=C2\SC(=Nc3ccc(O)cc3)NC2=O)cc1 | 6.28 | 5.94 | 8590 |
| Cc1cc(-c2cnc(C)nc2C2CCN(C(=O)c3ccc4ncccc4c3)CC2)on1 | 6.38 | < 6.04 | > 11600 |
| Cc1ccc2ncnc(Nc3cccc(C(F)(F)F)c3)c2c1 | 5.66 | 6.02 | 27900 |
| Cc1cccc(NC(c2ccncc2)c2ccc3cccnc3c2O)n1 (centres undefined) | 6.43 | 6.17 | 69900 |
| Cc1onc(-c2ccccc2)c1C(=O)N1CCC(CNc2c(-c3ccc(F)cc3)nc3ccccn23)CC1 | 6.75 | 6.17 | 45000 |
| Cc1ccccc1N1C(=O)N(c2ccccc2)C2CS(=O)(=O)CC21 (centres undefined) | < 5.90 | 5.72 | > 10000 |
| CC(CNC(=O)c1ccccc1)C(=O)OCC(=O)[C@@]12OC(C)(C)O[C@@H]1CC1C3CCC4=CC(=O)C=C[C@]4(C)[C@@]3(F)[C@@H](O)C[C@@]12C (some centres undefined) | 6.80 | 6.78 | 8220 |
| Nc1ccc(-c2nc3cc(Cc4ccc5[nH]c(-c6ccc(N)cc6)nc5c4)ccc3[nH]2)cc1 | 7.20 | 6.61 | 17900 |
| COC(=O)C1=C(C)NC2=C(C(=O)CC(c3ccccc3Cl)C2)C1c1ccc([N+](=O)[O-])cc1 (centres undefined) | 6.98 | 6.94 | > 100000 |
| CCCC(C)C(C(=O)Nc1c(C)cccc1C)N1C(=O)c2cc(NC(C)=O)ccc2NC(=O)[C@@H]1CCC(=O)O (some centres undefined) | < 6.79 | 5.84 | 8510 |
| CC(=NNC(=O)c1ccc([N+](=O)[O-])cc1)c1cccc([N+](=O)[O-])c1 | < 6.39 | < 5.85 | > 10000 |
| O=C(Nc1ccc(F)cc1)N1CCN(c2ccc3nnc(-c4ccccc4)n3n2)CC1 | 5.48 | < 4.90 | > 100000 |
| COc1cccc(-c2ccc(O)c(CNCCc3cccc(F)c3)c2)n1 | 6.14 | 5.96 | > 10000 |
| COc1cc(NC(=O)Cn2ncc3c(=O)oc4ccccc4c32)cc(OC)c1OC | 5.11 | < 4.90 | > 100000 |
| N=c1c2c(n(Cc3ccccc3)c3c1CCC3)CCCC2 | 6.13 | 6.37 | > 10000 |
| CC(=NO)c1ccc(NC2=C(N3CCCCC3)C(=O)c3ccccc3C2=O)cc1 | 7.05 | 7.03 | > 100000 |
| Cc1ccn2c(NC(C)(C)CC(C)(C)C)c(-c3ccccc3OC(=O)N(C)C)nc2c1 | 7.55 | 6.24 | > 10000 |
| CCOc1ccc2[nH]c3c(NCCCN(C)C)ncnc3c2c1 | 6.11 | 6.69 | 26600 |
| CCCCNC(=O)c1ccc2c(c1)N=C(c1cccnc1)N(CCN1CCOCC1)C2 | < 5.97 | < 5.90 | > 10400 |
| N=C(NN=Cc1ccc([N+](=O)[O-])cc1)NN=Cc1ccc([N+](=O)[O-])cc1 | 6.57 | 6.55 | > 100000 |
| CN(CCCNc1ccnc2cc(Cl)ccc12)C(=O)c1ccccc1 | 6.41 | 6.14 | > 10000 |

| SMILES | pEC50 (Plasmodium falciparum [1]) | pEC50 (Plasmodium falciparum [2]) | CC50 [3] [nM] |
| --- | --- | --- | --- |
| CC(C)(C)c1ccc(-c2c[n+](-c3ccccc3)c3n2CCCS3)cc1 | 6.50 | 6.66 | 7870 |
| CN(C)CCn1c(=N)n(CC(O)c2ccc(Cl)c(Cl)c2)c2ccccc21 (centres undefined) | 6.34 | 6.59 | > 10000 |
| COc1cc(Br)c(CCNC(=O)Cc2cc(OC)c(OC)cc2Br)cc1OC | < 5.06 | < 5.06 | > 100000 |
| c1cncc(-c2nc3cc(-c4ccc5[nH]c(-c6cccnc6)nc5c4)ccc3[nH]2)c1 | 5.89 | 5.85 | > 10000 |
| Cc1ccc(C)c(S(=O)(=O)N=C2C=C(SCC(=O)O)C(=O)c3ccccc32)c1 | 6.28 | 5.44 | 17700 |
| Cc1ccc(C)c(NC(=O)c2c(-c3c(Cl)cccc3Cl)noc2C)c1 | 6.35 | 6.66 | > 70700 |
| O=C(Nc1ccccc1C(F)(F)F)N1CCC(N2CCCCC2)CC1 | 5.82 | < 5.02 | > 100000 |
| CN1CCN(C(c2ccco2)c2sc3ncnn3c2O)CC1 (centres undefined) | 5.97 | < 5.90 | > 10000 |
| O=c1c2ccccc2[nH]c2cc(Cl)ccc12 | 6.75 | 7.02 | > 10000 |
| OC(CN1CCN(Cc2ccccc2)CC1)Cn1c2ccc(Cl)cc2c2cc(Cl)ccc21 (centres undefined) | 7.18 | 6.66 | 15700 |
| COC(=O)C1=C(C)NC2=C(C(=O)CC(c3ccc(OC)c(OC)c3)C2)C1c1ccc([N+](=O)[O-])cc1 (centres undefined) | 6.15 | 5.57 | > 100000 |
| COc1cc2nc(NCc3cccnc3)n3nc(-c4ccccc4)nc3c2cc1OC | 6.83 | 6.74 | > 100000 |
| O=C(NCCc1ccc(-c2ccccc2)cc1)c1ccc(NS(=O)(=O)C(F)(F)F)cc1 | < 6.36 | < 5.90 | > 8730 |
| CCc1n(C)c2ccccc2[n+]1CC(=O)c1ccc(Br)cc1 | 5.96 | 5.78 | > 10000 |
| CCN1C(C(=O)c2ccccc2)=C(Nc2c(C)n(C)n(-c3ccccc3)c2=O)c2ccccc2S1(=O)=O | 5.48 | < 4.90 | > 100000 |
| COc1ccc(Cl)cc1NC(=O)C1c2ccccc2C(=O)N(CC(C)C)C1c1cccs1 (centres undefined) | 6.57 | 6.08 | > 100000 |
| COc1ccc([N+](=O)[O-])cc1-c1ccc(/C=C(\C#N)c2nn(CCO)c(N)c2C#N)o1 | 6.22 | 6.06 | > 10000 |
| CC(=O)Nc1ccc(S(=O)(=O)NC2C(C)(C)C3CC[C@]2(C)C3)cc1 (some centres undefined) | < 6.74 | < 5.90 | > 10000 |
| COc1cc2nc(NCc3ccccn3)n3nc(-c4ccccc4)nc3c2cc1OC | 5.72 | 5.42 | > 100000 |
| Oc1c2c(nc3cc(-c4ccc(Br)cc4)nn13)CCCC2 | 5.89 | 6.28 | > 100000 |
| Cc1nc(-c2ccccn2)nc(NCCc2ccccc2)c1Cl | 5.82 | 5.90 | > 10000 |
| COc1cccc(CCOc2ccc3c(c2)C(=O)N(C(CC(C)C)C(=O)NC2CCN(Cc4ccccc4)CC2)[C@@H](Cc2ccc(O)cc2)C(=O)N3)c1 (some centres undefined) | 6.80 | 6.30 | > 10000 |
| O=C1CN(C(=O)CCC2CCCCC2)C(c2ccccc2)c2cc(F)ccc2N1 (centres undefined) | 5.89 | 5.97 | 33200 |

| SMILES | pEC50 (Plasmodium falciparum [1]) | pEC50 (Plasmodium falciparum [2]) | CC50 [3] [nM] |
| --- | --- | --- | --- |
| CN(C)CCCNc1ncc(C(=O)NCCc2ccccc2)c(NCC2CCCCC2)n1 | < 5.90 | 5.91 | > 10000 |
| COc1ccc(CC2NCC(O)C2OC(C)=O)cc1 (centres undefined) | 7.31 | 7.43 | 8110 |
| Cc1ccccc1C(=O)N(CC(=O)Nc1cc(C(C)(C)C)nn1-c1ccccc1Cl)C(C)C | 6.19 | 5.96 | > 8810 |
| CCOC(=O)C1=C(CC)NC2=C(C(=O)CC(C)(C)C2)C1c1ccc(Br)cc1 (centres undefined) | 7.36 | 6.39 | > 100000 |
| Cc1cccc(-n2nc3c(c2NC(=O)c2ccc4c(c2)OCO4)CS(=O)(=O)C3)c1C | < 5.90 | 6.91 | > 10000 |
| CC(=O)N(C)C1=C(N2CCCCCC2)C(=O)c2ccccc2C1=O | 7.41 | 7.45 | 1860 |
| O=C(c1cccc(Cl)c1)N1CCN(c2ccc([N+](=O)[O-])c(NC3CC3)c2)CC1 | 6.47 | 6.26 | > 100000 |
| CCOC(=O)N1CCC(N2C(=O)c3ccccc3C2Nc2ccc(OCC)cc2)CC1 (centres undefined) | 5.59 | < 4.90 | > 100000 |
| Nc1nc(N)c2cc(S(=O)(=O)N3CCOCC3)ccc2n1 | < 4.90 | 7.20 | 5050 |
| CCOC(=O)C1=C(C)N=c2sc(=Cc3cc(Cl)ccc3O)c(=O)n2C1c1ccc2c(c1)OCO2 (centres undefined) | 5.88 | 5.31 | > 100000 |
| O=C(O)c1c(F)cccc1Cl | 5.55 | < 5.11 | > 100000 |
| CCC(C)(C)c1ccc(Oc2ccc(NC(=O)c3ccc([N+](=O)[O-])o3)cc2)cc1 | 5.19 | 5.12 | 57600 |
| CC(C)CNC(=O)c1cnc(NCCCN(C)C)nc1NCCc1ccccc1 | < 5.90 | 6.01 | > 10000 |
| CCOC(=O)c1c(CN2CCN(CC#N)CC2)n(Cc2ccccc2)c2cc(Br)c(O)cc12 | 6.05 | 5.93 | > 100000 |
| CCOC(=O)N1CCc2c(sc(NCc3ccc(C)o3)c2C(=O)Nc2ccc(OC)cc2OC)C1 | 5.52 | 5.04 | > 100000 |
| COc1ccc(/C=C2/SC(Nc3ccc(F)cc3)=NC2=O)c(OC)c1 | 6.04 | 5.97 | > 10000 |
| CCOC(=O)c1ccc(NCc2c(C)[nH]c(C(=O)OCC)c2C)cc1 | 7.01 | 6.62 | > 100000 |
| CCCN1CCN(C(=O)C(=O)Nc2ccc3nc4n(c(=O)c3c2)CCCCC4)CC1 | 6.78 | 5.77 | > 100000 |
| CC(=O)N(C1=C(N2CCCC2)C(=O)c2ccccc2C1=O)c1cccc(F)c1 | 6.49 | 6.39 | 29000 |
| CCCCN(CCCC)CCCNc1ncnc2c1[nH]c1ccc(Cl)cc12 | 6.79 | 6.64 | 61800 |
| CCCCN(C)Cc1cc(-c2cccc(OC)n2)ccc1O | 7.04 | 6.06 | > 100000 |
| Ic1nc2ccccc2s1 | 5.87 | < 6.53 | > 10000 |
